SMILES strings stand for the structures. “Also recorded” adds a separate entry of the source. Where two headings read alike, the source gives them in different places.

Assay [1] addresses T1, ROCK1 (Homo sapiens, UniProt Q13464). The assay is described as follows: ROCK1 enzyme activity at 10 μM. In kind it is biochemical. As to conditions: 10 μM compound. As for the experimental part: (§1) Enzyme activity of ROCK1 and ROCK2 were studied at 10 μM to compare the inhibition activity of ROCK inhibitors. Table 2 summarizes the extent of inhibition of the compounds of the inventions.

For assay [2], the system named is H4-tau cells. The assay is described as follows: p-tau protein to total tau protein ratio in H4-tau cells at IC10 dosage, 96-hour time course, ELISA. In kind it is cell-based, human. Particulars: 96-hour time course, compared to vehicle (DMSO), two-sided t-test. As to the method: Thirteen different ROCK inhibitors were tested for their effect on the ratio of p-tau protein to total tau protein. […] Alamar Blue was used after cells were treated with the respective compounds at various dosages to determine the IC10 value. The compounds were applied to H4-tau cells over a 96-hour time course with 8 time points (at hours 12, 24, 36, 48, 60, 72, 84, and 96). At each time point, total cell protein was collected and p-tau protein and total tau protein was assessed using an enzyme-linked immunosorbent assay. The p-tau to total tau protein ratio at each time point for each drug was compared to the corresponding time point for cells treated with vehicle (DMSO) used to solubilize the respective compound.
Two-sided t-tests were used to determine significant changes in the p-tau protein to total tau protein ratio for each drug across the entire time course at each tested time point. Cells treated by drug were compared to cells treated to vehicle.
For orientation: ELISA stands for enzyme-linked immunosorbent assay.

The target in assay [3] is T2, ROCK2 (Homo sapiens, UniProt O75116). In words: ROCK2 enzyme activity at 10 μM. In kind it is biochemical. As to conditions: 10 μM compound. As for the experimental part: as §1
T2 sequence (O75116 whole entry): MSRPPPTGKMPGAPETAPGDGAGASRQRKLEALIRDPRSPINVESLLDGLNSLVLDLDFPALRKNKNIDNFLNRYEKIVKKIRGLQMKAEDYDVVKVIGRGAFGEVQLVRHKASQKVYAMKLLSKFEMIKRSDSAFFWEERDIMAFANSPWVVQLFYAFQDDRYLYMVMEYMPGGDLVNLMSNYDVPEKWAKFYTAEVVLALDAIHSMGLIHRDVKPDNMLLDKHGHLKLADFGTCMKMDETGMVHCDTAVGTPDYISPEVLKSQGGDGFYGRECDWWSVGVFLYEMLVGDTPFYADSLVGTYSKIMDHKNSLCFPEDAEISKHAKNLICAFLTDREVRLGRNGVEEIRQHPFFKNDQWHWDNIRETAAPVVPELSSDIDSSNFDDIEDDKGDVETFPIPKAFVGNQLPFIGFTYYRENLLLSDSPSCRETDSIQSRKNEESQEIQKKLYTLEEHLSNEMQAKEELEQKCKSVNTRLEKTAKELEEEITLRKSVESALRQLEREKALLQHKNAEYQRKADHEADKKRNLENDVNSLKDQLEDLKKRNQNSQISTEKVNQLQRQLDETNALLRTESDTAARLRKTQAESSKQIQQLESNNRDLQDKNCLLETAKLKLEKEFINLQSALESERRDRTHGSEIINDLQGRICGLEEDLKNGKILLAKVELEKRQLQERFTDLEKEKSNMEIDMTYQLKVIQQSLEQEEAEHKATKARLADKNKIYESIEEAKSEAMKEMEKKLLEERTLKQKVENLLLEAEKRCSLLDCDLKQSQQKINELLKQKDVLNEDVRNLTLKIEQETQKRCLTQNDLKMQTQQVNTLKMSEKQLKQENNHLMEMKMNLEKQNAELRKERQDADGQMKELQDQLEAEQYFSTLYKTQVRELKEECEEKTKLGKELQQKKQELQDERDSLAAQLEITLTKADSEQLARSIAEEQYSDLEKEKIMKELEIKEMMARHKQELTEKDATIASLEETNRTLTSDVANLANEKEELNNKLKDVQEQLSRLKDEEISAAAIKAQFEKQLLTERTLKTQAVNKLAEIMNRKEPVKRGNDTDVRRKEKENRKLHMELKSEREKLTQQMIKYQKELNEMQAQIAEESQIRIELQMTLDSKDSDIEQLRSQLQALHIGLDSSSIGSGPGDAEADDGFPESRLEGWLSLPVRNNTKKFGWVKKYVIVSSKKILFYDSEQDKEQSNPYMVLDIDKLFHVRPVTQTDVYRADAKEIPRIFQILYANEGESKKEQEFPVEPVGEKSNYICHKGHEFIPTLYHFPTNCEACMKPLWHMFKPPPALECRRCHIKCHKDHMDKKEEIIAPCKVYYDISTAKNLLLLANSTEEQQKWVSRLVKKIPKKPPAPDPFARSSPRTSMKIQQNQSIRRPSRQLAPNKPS
Assay [4] relates to H4-tau cells. The assay is described as follows: Validation time course in H4-tau cells at IC50 (cell survival) dosage: p-tau and total tau protein by ELISA. In kind it is cell-based, human. Particulars: IC50 dosage for cell survival, over 96 hours; for concentration of total tau protein: FIG. 2; for concentration of p-tau protein: FIG. 3. As for the experimental part:
The time course was repeated using 4 biological replicates over 96 hours and 10 time points (at hours 0, 6, 12, 24, 36, 48, 60, 72, 84, and 96). Total cell protein was collected at each time point and ELISAs were used to measure p-tau protein and total tau protein.

Assay [5] deals with T1, ROCK1. The assay is described as follows: IC50 value for ROCK1 activity. In kind it is biochemical. Particulars: ATP at Km (10 μM).
The target in assay [6] is T2, ROCK2. In words: IC50 value for ROCK2 activity. In kind it is biochemical. As to conditions: ATP at Km (10 μM).
Assay [7] has as its system Aβ42. Particulars: mouse model of AD; cited from earlier work.
Assay [8] has as its system rats. Particulars: cited from earlier work.
For assay [9], the system named is rats. As to conditions: aged rats; cited from earlier work.
Where [10] appears, read: Test 1, read-out: % enzyme activity at 10 μM ROCK1 Test 1.
Where [11] appears, read: Test 2, read-out: % enzyme activity at 10 μM ROCK1 Test 2.
The mark [12] stands for this setting: Test 1, read-out: % enzyme activity at 10 μM ROCK2 Test 1.
[13] abbreviates: Test 2, read-out: % enzyme activity at 10 μM ROCK2 Test 2.

T1 sequence (Q13464 whole entry): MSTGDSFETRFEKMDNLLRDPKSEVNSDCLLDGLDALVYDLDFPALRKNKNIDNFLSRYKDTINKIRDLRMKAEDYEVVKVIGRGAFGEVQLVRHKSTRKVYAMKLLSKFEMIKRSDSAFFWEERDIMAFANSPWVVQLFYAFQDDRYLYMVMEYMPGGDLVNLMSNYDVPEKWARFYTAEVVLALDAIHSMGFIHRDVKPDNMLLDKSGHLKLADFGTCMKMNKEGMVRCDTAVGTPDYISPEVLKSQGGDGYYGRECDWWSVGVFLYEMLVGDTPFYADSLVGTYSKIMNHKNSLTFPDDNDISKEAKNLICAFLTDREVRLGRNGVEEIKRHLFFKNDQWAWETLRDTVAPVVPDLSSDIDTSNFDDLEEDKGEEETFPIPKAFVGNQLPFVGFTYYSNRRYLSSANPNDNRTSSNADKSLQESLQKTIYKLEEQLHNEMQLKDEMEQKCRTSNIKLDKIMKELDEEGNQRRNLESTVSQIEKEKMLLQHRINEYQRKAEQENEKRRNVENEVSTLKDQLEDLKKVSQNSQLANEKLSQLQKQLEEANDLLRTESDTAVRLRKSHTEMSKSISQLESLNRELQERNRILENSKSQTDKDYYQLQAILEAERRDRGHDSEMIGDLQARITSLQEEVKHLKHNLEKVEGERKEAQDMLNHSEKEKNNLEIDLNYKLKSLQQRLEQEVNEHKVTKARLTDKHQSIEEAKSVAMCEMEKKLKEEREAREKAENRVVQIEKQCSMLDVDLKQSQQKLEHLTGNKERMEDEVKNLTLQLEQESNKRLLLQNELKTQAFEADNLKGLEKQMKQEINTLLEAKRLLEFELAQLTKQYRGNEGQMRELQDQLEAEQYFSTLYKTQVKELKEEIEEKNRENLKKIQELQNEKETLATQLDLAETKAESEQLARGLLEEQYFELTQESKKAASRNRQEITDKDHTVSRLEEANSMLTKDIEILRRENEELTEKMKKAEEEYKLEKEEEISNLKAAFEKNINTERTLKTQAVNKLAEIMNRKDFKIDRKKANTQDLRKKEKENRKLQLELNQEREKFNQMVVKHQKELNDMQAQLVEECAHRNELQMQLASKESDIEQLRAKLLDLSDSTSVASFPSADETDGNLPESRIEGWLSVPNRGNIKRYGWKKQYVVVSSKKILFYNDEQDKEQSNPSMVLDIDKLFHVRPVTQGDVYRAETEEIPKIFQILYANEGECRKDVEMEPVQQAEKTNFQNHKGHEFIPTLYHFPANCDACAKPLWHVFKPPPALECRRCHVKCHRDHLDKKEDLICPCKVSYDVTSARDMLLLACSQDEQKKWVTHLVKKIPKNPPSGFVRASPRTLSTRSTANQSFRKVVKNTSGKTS

For the compound `O=C(Nc1ccc(-c2cn[nH]c2)cc1)C1COc2ccccc2C1` (stereo not shown) [Compound T299], the remaining activity at 10 µM in [1] (setting [10]) is 0.97%; in [1] (setting [11]), 2.38%.
Regarding `O=C(Nc1cccc(-c2ccncc2)c1)C1COc2ccccc2C1` (stereo not shown) [Compound T303], the “p-tau protein to total tau protein ratio” value in assay [2] was “significant decrease”. For the same compound, the remaining activity at 10 µM in assay [1] (setting [10]) was 3.26%; in [1] (setting [11]), 2.65%; in [3] (setting [12]) it was 0.78%; in assay [3] (setting [13]), 0.55%.
With `O=S(=O)(c1cccc2cnccc12)N1CCCN(Cc2ccc(F)cc2)CC1` [Compound T306], the remaining activity at 10 µM in assay [1] (setting [10]) was determined as 6.75%; in [1] (setting [11]), 6.94%; in assay [3] (setting [12]), 3.85%; in assay [3] (setting [13]), 3.62%.
The term IC50 denotes the concentration needed to halve the response being measured. Turning to `O=C(NCCc1cccc(Cl)c1)c1ccc(-c2ccncc2)cc1` [Compound T343], the “p-tau protein to total tau protein ratio” value is reported as “significant decrease” in assay [2] and “significant decrease; also recorded: decreased ratio” in assay [4] (4 biological replicates, FIG. 4). Also, the “concentration of total tau protein” value in [4] was “lesser concentrations”. Besides, the “concentration of p-tau protein” value in assay [4] is listed as “lesser concentrations”. Further, the remaining activity at 10 µM was 1.22% in assay [1] (setting [10]), 1.17% in assay [1] (setting [11]), 0.08% in assay [3] (setting [12]) and 0.56% in [3] (setting [13]). Also, the 50% inhibitory concentration (IC50) is 0.0318 µM in assay [5] (Test 1, read-out: IC50 (μM) ROCK1 Test 1); 0.0227 µM in assay [5] (Test 2, read-out: IC50 (μM) ROCK1 Test 2); 0.0167 µM in assay [6] (Test 1, read-out: IC50 (μM) ROCK2 Test 1); 0.0102 µM in [6] (Test 2, read-out: IC50 (μM) ROCK2 Test 2).
Turning to `CC(Cc1ccc(F)cc1)NC(=O)c1ccc(-c2ccncc2)cc1` (stereo not shown) [Compound T350], the “p-tau protein to total tau protein ratio” value in assay [2] was “significant decrease”.
`CC(N)C1CCC(C(=O)Nc2ccncc2)CC1` (stereo not shown) [Compound Y27632, 4-(1-aminoethyl)-N-pyridin-4-yl-cyclohexane-1-carboxamide]: the “brain levels of Aβ42” value in [7] was “preferentially lowered”. The memory and learning result in assay [8] (rats with ischemia) was “increased”; in assay [8] (sham rats, no hyperphosphorylation of the tau protein) it was “decreased”. Besides, the “hyperphosphorylation of the tau protein” value in [8] (rats, hyperphosphorylation due to ischemia) was “decreased”.
As for `O=S(=O)(c1cccc2cnccc12)N1CCCNCC1` [Fasudil, 5-(1,4-diazepan-1-ylsulfonyl)isoquinoline, reference compound], in assay [4], the “concentration of total tau protein” value is “lesser concentrations” and the “concentration of p-tau protein” value is on record as “lesser concentrations”. Moreover, in assay [9], the learning and memory entry was “increased”.

(Values after US9617214B2, “Compounds for cognitive enhancement and methods of use thereof” (The Translational Genomics Research Institute, priority 2013, dated 2017).)
